Columns and labels:
[1] = system: ECF-resistant MKN-74 cells; assay: Crystal violet staining and WST-1 analysis of regrowth after ECF treatment of NINJ2 knockdown cells; assay type: cell-based, human; settings: 3 weeks after ECF treatment; NINJ2 knockdown ECF-resistant MKN-74 cells
Protocol: To evaluate whether NINJ2 is involved in drug resistance, a stable NINJ2 knockdown (K/D) ECF-resistant cancer cell line was prepared using shRNA lentiviral particles and puromycin. More specifically, for stable NINJ2 knockdown in ECF-resistant MKN-74 cells, two shRNAs (TRCN0000063773 (Clone-1) and TRCN0000063775 (Clone-2)) targeting different partial regions of NINJ2 genes (Isoform-1, Isoform-2 and Isoform-3) as shown in Table 1 below were used, and a non-targeting pLKO.1-puro shRNA control (SHC002) was used as a negative control. The shRNA clones (TRCN0000063773, TRCN0000063775 and SHC002) containing the pMDLg/pRRE, pRSV-Rev and pMD2.G plasmids, respectively, were transfected into 293T cells using Fugene HD (Promega) according to the manufacturer's instructions. After 48 hours, each supernatant was collected and filtered, and ECF-resistant MKN-74 cells were transduced with lentiviral particles and cultured in a growth medium containing puromycin. After NINJ2 knockdown in the lentivirus-transduced MKN-74 cells was confirmed using qRT-PCR, the cells were treated with ECF, and an examination was made as to whether cancer cells in the negative control (Mock) and the shNINJ2 groups (clone 1 and clone 2) re-grew.

[2] = system: ECF-resistant cancer cells (RES) from the MKN-28/74 cell line; assay: Nude mouse xenograft of ECF-resistant MKN-28/74 cells given ECF and siRNA; assay type: in vivo, Balb/c nude mice; settings: ECF (5.7 mg/kg epirubicin, 6.67 mg/kg cisplatin, 22 mg/kg 5-FU) intratumorally once a week; NINJ2 mRNA expression inhibited
Protocol: FIGS. 9A and 9B show the results of measuring changes in tumor volume and weight after transplanting wild-type or scrambled siRNA RES and siNINJ2 RES cancer cell lines from the MKN-28/74 cell line into nude mice and then administering ECF and siRNA to the nude mice when the tumor volume reached 100 mm^3, according to one example of the present invention.
A mouse model was prepared by xenografting Balb/c nude mice with the spheroids prepared from the MKN-28/74 cell line by the method of Example 3. Specifically, […] ECF-resistant cancer cells (ECF-R cancer cells) and parental cancer cells were subcutaneously injected into Balb/c nude mice, respectively, and an examination was made as to whether the animal model xenografted with the ECF-resistant cancer cells (RES) established in vitro had acquired ECF drug resistance. […] To this end, 5.7 mg/kg of epirubicin, 6.67 mg/kg of cisplatin and 22 mg/kg of 5-FU were administered intratumorally to xenograft model mice having a tumor size of 100 mm^3 once a week for 15 days, and the tumor weight and the tumor volume were measured every 3 days using digital calipers. […]
Referring to FIG. 9A, it was confirmed that the tumor volume changed after the ECF drugs were administered to the animal model xenografted with each cell line group. FIG. 9B depicts graphs showing the results of quantifying the changes in the tumor volume and weight.

Row | Substance | recurrence and regrowth of cancer cells compared to negative control (Mock) [1] | tumor volume compared to the RES group [2] | tumor weight compared to the RES group [2]
1 | clone-1: NINJ2-targeting shRNA, lentiviral; target region SEQ ID NO: 5, hairpin sequence SEQ ID NO: 9 (guide CCGGCGTGGTCATTGCACGGCTGAACTCGAGTTCAGCCGTGCAATGACCACGTTTTTG) | significantly inhibited | – | –
2 | clone-2: NINJ2-targeting shRNA, lentiviral; target region SEQ ID NO: 6, hairpin sequence SEQ ID NO: 10 (guide CCGGCTGAACCTGAATGAGGTAGAACTCGAGTTCTACCTCATTCAGGTTCAGTTTTTG) | significantly inhibited | – | –
3 | siNINJ2: siRNA against NINJ2, sense SEQ ID NO: 11 and antisense SEQ ID NO: 12 (sense GUAAGGCAUGUCUGUCUAAGGCC; antisense GGCCUUAGACAGACAUGCCUUAC; listed as RNA, chemistry not given here) | – | significantly decreased | significantly decreased

— patent US12716888B2, “Composition for diagnosis or treatment of anticancer drug resistance” (priority 2020, dated 2026)
